In ChEMBL document CHEMBL4152185, “Therapeutic potential of songorine, a diterpenoid alkaloid of the genus Aconitum” (Eur J Med Chem, 2018):

What was measured:
[1] = system: Rattus norvegicus; assay: Antiarrhythmic activity in iv dosed aconitine-induced rat arrhythmia model administered 3 to 5 mins prior to aconitine challenge by electrocardiographic method; assay type: functional
[2] = Acute toxicity in iv dosed rat; assay type: organism-based; conditions: in vivo
[3] = Antiarrhythmic index, ratio of LD50 for iv dosed rat to ED50 for antiarrhythmic activity in iv dosed aconitine-induced rat arrhythmia model; assay type: toxicity, organism-based; conditions: in vivo, read-out: Ratio LD50/ED50

| SMILES | ED50 [1] [mg/kg] | LD50 [2] [mg/kg] | selectivity ratio [3] |
| --- | --- | --- | --- |
| C=C1[C@H]2C[C@@]3([C@@H]1O)[C@@H](CC2=O)[C@@]12[C@@H](OC(=O)c4ccccc4)CC[C@@]4(C)CN(CC)[C@@H]1[C@@H]3C[C@H]42 | 0.38 | 41 | 108 |
| C=C1[C@H]2C[C@@]3([C@@H]1O)[C@@H](CC2=O)[C@@]12[C@@H](OC(C)=O)CC[C@@]4(C)CN(CC)[C@@H]1[C@@H]3C[C@H]42 | 15 | 150 | 10 |
| C=C1[C@H]2C[C@@]3([C@@H]1OC(C)=O)[C@@H](CC2=O)[C@@]12[C@@H](OC(C)=O)CC[C@@]4(C)CN(CC)[C@@H]1[C@@H]3C[C@H]42 | 18 | 131 | 7.3 |
| C=C1[C@H]2C[C@@]3([C@@H]1O)[C@@H](CC2=O)[C@]12[C@@H]4C[C@H]3[C@H]1N(CC)C[C@]4(C)CC[C@@H]2O [SONGORINE] | 7.3 | 142 | 19 |
